Assay results taken from ChEMBL document CHEMBL1128085, “Asymmetric synthesis of FR165914: A novel 3-adrenergic agonist with a benzocycloheptene structure” (Bioorg Med Chem Lett, 1995).

Legend:
[1] = molecular target: Beta-1 adrenergic receptor (Cavia porcellus, UniProt B0FL73); assay: Agonistic activity against Beta-1 adrenergic receptor in guinea pig atrium; type: functional, tissue-based, Cardiac atrium
[2] = molecular target: Beta-3 adrenergic receptor (Rattus norvegicus, UniProt P26255); assay: Agonistic activity against Beta-3 adrenergic receptor in rat colon; type: functional
Chain of Beta-3 adrenergic receptor (P26255 whole entry): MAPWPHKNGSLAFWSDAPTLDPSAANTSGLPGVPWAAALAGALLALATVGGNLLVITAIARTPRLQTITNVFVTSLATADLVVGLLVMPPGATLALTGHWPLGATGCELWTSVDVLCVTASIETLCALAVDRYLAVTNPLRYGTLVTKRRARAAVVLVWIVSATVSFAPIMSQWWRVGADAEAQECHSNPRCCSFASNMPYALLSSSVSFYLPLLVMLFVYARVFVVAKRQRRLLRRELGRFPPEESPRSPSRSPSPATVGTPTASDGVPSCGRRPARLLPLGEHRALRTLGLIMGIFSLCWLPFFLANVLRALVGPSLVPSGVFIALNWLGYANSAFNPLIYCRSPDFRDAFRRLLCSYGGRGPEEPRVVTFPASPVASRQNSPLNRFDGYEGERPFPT

Chain of Beta-1 adrenergic receptor (B0FL73 whole entry): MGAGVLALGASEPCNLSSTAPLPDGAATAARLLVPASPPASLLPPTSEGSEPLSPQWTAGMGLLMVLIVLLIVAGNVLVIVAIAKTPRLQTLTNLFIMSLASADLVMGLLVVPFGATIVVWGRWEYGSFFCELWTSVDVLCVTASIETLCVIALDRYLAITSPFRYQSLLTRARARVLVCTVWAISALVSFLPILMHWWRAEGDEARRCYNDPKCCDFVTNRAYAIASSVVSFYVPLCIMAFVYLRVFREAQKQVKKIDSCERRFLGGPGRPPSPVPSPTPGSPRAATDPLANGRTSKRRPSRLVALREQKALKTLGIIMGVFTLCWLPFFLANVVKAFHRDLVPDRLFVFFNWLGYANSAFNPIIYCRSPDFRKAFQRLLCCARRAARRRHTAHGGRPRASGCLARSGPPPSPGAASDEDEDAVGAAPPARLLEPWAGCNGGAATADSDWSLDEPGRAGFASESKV

O=C(O)C1(C(=O)O)Oc2cc3c(cc2O1)C[C@@H](NC[C@H](O)c1cccc(Cl)c1)CCC3
EC50 [1]: > 10000 nM
IC50 [2]: 6 nM
